Consider 13 molecules from patent publication US9914730B2, “Azaquinazoline inhibitors of Atypical protein Kinase C” (Ignyta, Inc., priority 2012, dated 2018).

By IC50 is commonly meant the concentration that inhibits the measured activity by half. For orientation: melting point means the temperature, or range, at which the solid turns liquid.

The target in data set [1] is T1, full-length human PKCι (Homo sapiens, UniProt P41743).
T1 construct: Recombinant, full-length human PKCι expressed in Sf21 insect cells is also commercially available; purchased; host or cells: Sf21 insect cells
T1 sequence (P41743 1-596): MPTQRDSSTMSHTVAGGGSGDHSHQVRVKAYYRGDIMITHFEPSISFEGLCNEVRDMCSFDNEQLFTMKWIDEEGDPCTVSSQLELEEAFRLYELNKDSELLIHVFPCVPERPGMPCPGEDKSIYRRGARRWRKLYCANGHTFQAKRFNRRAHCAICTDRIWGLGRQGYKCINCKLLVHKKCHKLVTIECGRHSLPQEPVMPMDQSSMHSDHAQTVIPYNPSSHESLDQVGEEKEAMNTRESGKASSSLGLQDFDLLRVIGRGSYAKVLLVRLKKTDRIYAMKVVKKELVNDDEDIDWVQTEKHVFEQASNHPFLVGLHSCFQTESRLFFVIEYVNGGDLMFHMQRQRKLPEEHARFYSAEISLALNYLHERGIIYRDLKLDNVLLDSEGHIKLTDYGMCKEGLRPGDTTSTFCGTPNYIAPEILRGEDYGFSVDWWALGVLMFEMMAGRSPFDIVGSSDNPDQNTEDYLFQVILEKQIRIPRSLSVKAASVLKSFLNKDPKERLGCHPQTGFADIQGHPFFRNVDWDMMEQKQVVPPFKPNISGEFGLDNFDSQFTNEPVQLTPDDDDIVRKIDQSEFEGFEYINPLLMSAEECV
In words: PKCι IC50 IMAP assay, full-length PKCι at 150 μM ATP. Particulars: read-out: IC50 in IMAP assay against full length PKCi at 150 μM ATP. In kind it is biochemical. In a few lines:
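Compounds in 4% final DMSO are mixed with Sf21-derived full-length human PKCι (typically 15 pM) and 100 nM FAM-labelled pseudosubstrate peptide, then started with 150 μM ATP. Reaction runs 60 min at room temperature, is quenched with IMAP development reagent for 2 h, and fluorescence polarisation is measured to derive IC50.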

Data set [2] relates to follicular lymphoma. Particulars: by targeting a PKCζ-MAPK-mTOR pathway; literature (Leseux et al.); cited from earlier work.
The subject of data set [3] is NSCLC cells. Particulars: pharmacological inhibition of PKCι; literature (Regala et al.); cited from earlier work.

As to `COc1cncc2nc(-c3ccnc(Nc4ccccc4)c3)nc(N3CC[C@@H](CO)C3)c12` [Example 465, {(R)-1-[5-Methoxy-2-(2-phenylamino-pyridin-4-yl)-pyrido[3,4-d]pyrimidin-4-yl]-pyrrolidin-3-yl}-methanol], the melting point is 208 to 209 °C. In addition, in data set [1], the IC50 was in the range of 1 to 10 µM.

For the molecule `COc1cncc2nc(-c3ccnc(Nc4ccccc4)c3)nc(N3CCC(F)CC3)c12` [Example 462, {4-[4-(4-Fluoro-piperidin-1-yl)-5-methoxy-pyrido[3,4-d]pyrimidin-2-yl]-pyridin-2-yl}-phenyl-amine], the melting point fell in the range of 202 to 205 °C. Further, in data set [1], the IC50 lay within 10 to 40 µM. The corresponding values for `COc1cncc2nc(-c3ccnc(Nc4ccccc4)c3)nc(N3CCC(C#N)CC3)c12` [Example 461, 1-[5-Methoxy-2-(2-phenylamino-pyridin-4-yl)-pyrido[3,4-d]pyrimidin-4-yl]-piperidine-4-carbonitrile] are 242 to 244 °C and 1 to 10 µM. Taken in the same sequence, the figures for `Cc1cc(N2CCOCC2)ccc1Nc1cc(-c2nc(N3CCNCC3)c3c(C4CC4)cncc3n2)ccn1` [Example 474, [4-(5-Cyclopropyl-4-piperazin-1-yl-pyrido[3,4-d]pyrimidin-2-yl)-pyridin-2-yl]-(2-methyl-4-morpholin-4-yl-phenyl)-amine] were 214 to 220 °C and below 0.1 µM. As for “Rituximab: "the anti-CD20 therapeutic antibody rituximab"”, the follicular lymphoma proliferation entry in data set [2] is on record as “inhibits follicular lymphoma proliferation”. Turning to `COc1cccc(Nc2cc(-c3nc(N4CCNCC4)c4c(OC)cncc4n3)ccn2)n1` [Example 448, [4-(5-Methoxy-4-piperazin-1-yl-pyrido[3,4-d]pyrimidin-2-yl)-pyridin-2-yl]-(6-methoxy-pyridin-2-yl)-amine], the melting point was 189 to 191 °C. In data set [1], the IC50 was below 0.1 µM. Taken in the same sequence, the figures for `c1cncc(Nc2cc(-c3nc(N4CCNCC4)c4c(C5CC5)cncc4n3)ccn2)c1` [Example 476, [4-(5-Cyclopropyl-4-piperazin-1-yl-pyrido[3,4-d]pyrimidin-2-yl)-pyridin-2-yl]-pyridin-3-yl-amine] were 226 to 228 °C and below 0.1 µM.

In the case of `N#Cc1ccc(CC(=O)Nc2cc(-c3nc(N4CCNCC4)c4c(C5CC5)cncc4n3)ccn2)cc1` [Example 473, 2-(4-Cyano-phenyl)-N-[4-(5-cyclopropyl-4-piperazin-1-yl-pyrido[3,4-d]pyrimidin-2-yl)-pyridin-2-yl]-acetamide], the melting point lay in the range of 200 to 203 °C. The IC50 in data set [1] is below 0.1 µM. As for `O=C(O)CC([S-])C(=O)O.[Au+]` (stereo not drawn) [aurothiomalate], the “growth of NSCLC cells in soft agar” value in data set [3] is “blocks the growth”. Take `COc1cncc2nc(-c3ccnc(Nc4ccccc4)c3)nc(N3CC[C@H](O)[C@H](O)C3)c12` (racemic) [Example 436, (±)-cis-1-[5-Methoxy-2-(2-phenylamino-pyridin-4-yl)-pyrido[3,4-d]pyrimidin-4-yl]-piperidine-3,4-diol]: the melting point was in the range of 241 to 243 °C. Further, in data set [1], the IC50 lay in the range of 0.1 to 1 µM. `COc1cncc2nc(-c3ccnc(Nc4ncccn4)c3)nc(N3CCNCC3)c12` [Example 423, [4-(5-Methoxy-4-piperazin-1-yl-pyrido[3,4-d]pyrimidin-2-yl)-pyridin-2-yl]-pyrimidin-2-yl-amine] registered a melting point of 200 to 203 °C. The IC50 in data set [1] fell in the range of 0.1 to 1 µM. Taken in the same sequence, the figures for `COc1cncc2nc(-c3ccnc(Nc4ccccc4)c3)nc(N3CC[C@H](CO)C3)c12` [Example 466, {(S)-1-[5-Methoxy-2-(2-phenylamino-pyridin-4-yl)-pyrido[3,4-d]pyrimidin-4-yl]-pyrrolidin-3-yl}-methanol] were 210 to 211 °C and 1 to 10 µM. In the case of `c1cc(-c2nc(N3CCNCC3)c3c(C4CC4)cncc3n2)cc(Nc2ccc(N3CCOCC3)nc2)n1` [Example 475, [4-(5-Cyclopropyl-4-piperazin-1-yl-pyrido[3,4-d]pyrimidin-2-yl)-pyridin-2-yl]-(6-morpholin-4-yl-pyridin-3-yl)-amine], the melting point fell in the range of 217 to 219 °C. For the same molecule, the IC50 in data set [1] is below 0.1 µM.
